Reference: patent publication US12503452B2 (Curza Global, LLC, priority 2019, dated 2025)
Where a name gives a salt, the structure may show the parent alone. Read-outs that look alike come from different tables or passages of the source.

Legend:
[1] = test system: A. baumannii (Ab); test: Broth microdilution minimum inhibitory concentration (MIC); format: cell-based; conditions: for MIC: Acinetobacter baumannii, read-out: Ab + bicarb MIC
Summary of the method: (§1)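 CLSI broth microdilution with 8 two-fold compound dilutions in CAMHB, or CAMHB plus sodium bicarbonate (6.25 or 25 mM final) or heat-inactivated human serum (0–50%). Inoculum 5×10^4 CFU/well from 0.5 McFarland cultures grown at 35±2° C; tested in triplicate.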

[2] = test system: E. coli (Ec); test: as above; format: cell-based; conditions: for MIC: Escherichia coli, read-out: E. coli + bicarb MIC
Summary of the method: as §1

[3] = test system: S. aureus (Sa); test: as above; format: cell-based; conditions: for MIC: Staphylococcus aureus, read-out: Sa + bicarb MIC
Summary of the method: as §1

[4] = test system: E. faecalis (Ef); test: as above; format: cell-based; conditions: for MIC: Enterococcus faecalis, read-out: Ef + bicarb MIC
Summary of the method: as §1

[5] = test system: P. aeruginosa (Pa); test: as above; format: cell-based; conditions: for MIC: Pseudomonas aeruginosa, read-out: Pa MIC + bicarb
Summary of the method: as §1

[6] = biological target: Rabbit Reticulocyte Lysate (eukaryotic protein synthesis); test: Rabbit reticulocyte lysate luciferase assay (inhibition of eukaryotic protein synthesis); format: biochemical; conditions: read-out: Rabbit reticulocyte IC50 (μM/% inhib.)
Summary of the method: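 Nuclease-treated rabbit reticulocyte lysate translating luciferase control RNA, with complete amino acids, was incubated at 30° C. for 90 minutes with 2-fold serial compound dilutions. Luminescence was measured after adding luciferase reagent. % inhibition was relative to water controls, with no-RNA wells as background.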

[7] = test system: E. coli S30 extract (bacterial protein synthesis); test: E. coli S30 extract coupled transcription-translation luciferase assay (inhibition of bacterial protein synthesis); format: biochemical; conditions: read-out: S30 IC50 (μM/% inhib.)
Summary of the method: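 Cell-free coupled transcription-translation in E. coli S30 circular-DNA extract, with pBESTluc plasmid as template and complete amino acid mix. Eight 2-fold compound dilutions were incubated with the extract 1 h at 37 °C, chilled, then luciferase luminescence was read. % inhibition was taken relative to no-inhibitor wells; no-DNA wells gave background.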

[8] = A. baumannii, growth medium supplemented with sodium bicarbonate
[9] = E. coli, growth medium supplemented with sodium bicarbonate
[10] = S. aureus, growth medium supplemented with sodium bicarbonate
[11] = E. faecalis, growth medium supplemented with sodium bicarbonate
[12] = P. aeruginosa, growth medium supplemented with sodium bicarbonate
[13] = class by IC50 or % inhibition @ 1 μM
[14] = A. baumannii, growth medium with sodium bicarbonate
[15] = E. coli, growth medium with sodium bicarbonate
[16] = S. aureus, growth medium with sodium bicarbonate
[17] = E. faecalis, growth medium with sodium bicarbonate
[18] = P. aeruginosa, growth medium with sodium bicarbonate

SMILES | MIC [1, 8] | MIC [2, 9] | MIC [3, 10] | MIC [4, 11] | MIC [5, 12] | IC50 [6, 13] | IC50 [7, 13] | MIC [1, 14] | MIC [2, 15] | MIC [3, 16] | MIC [4, 17] | MIC [5, 18] | other results
CC(C)(N)C(=O)N1CCN(C(=O)Nc2ccn(-c3ccc(C[C@H](N)C(=O)NC4CNC4)cc3)c(=O)n2)CC1 [Compound 147] | > 32 µg/mL | > 32 µg/mL | > 32 µg/mL | > 32 µg/mL | > 32 µg/mL | > 1 µM | > 1 µM |  |  |  |  |  | 
CC(Cc1ccc(-n2ccc(NC(=O)N3CCN(C(=O)C(C)(C)N)CC3)nc2=O)cc1)N(C)C[C@H]1C[C@H](N)C1 (stereo partly drawn) [Compound 157] | > 32 µg/mL | < 8 µg/mL | < 8 µg/mL | < 8 µg/mL | > 32 µg/mL | > 1 µM | < 0.5 µM |  |  |  |  |  | 
CC(C)(N)C(=O)N1CCN(C(=O)Nc2ccn(-c3ccc(CCN4CCC[C@H](CN)C4)cc3)c(=O)n2)CC1 [Compound 26] | > 32 µg/mL | < 8 µg/mL | < 8 µg/mL | 8 to 32 µg/mL | > 32 µg/mL | > 1 µM | < 0.5 µM |  |  |  |  |  | 
CN(Cc1ccc(-n2ccc(NC(=O)N3CCN(C(=O)C(C)(C)N)CC3)nc2=O)cc1)[C@H]1CC[C@@H](N)CC1 [Compound 121] | > 32 µg/mL | < 8 µg/mL | < 8 µg/mL | < 8 µg/mL | > 32 µg/mL | > 1 µM | < 0.5 µM |  |  |  |  |  | 
CC(Cc1ccc(-n2ccc(NC(=O)N3CCN(C(=O)C(C)(C)N)CC3)nc2=O)cc1)N[C@H]1CC[C@H](N)CC1 (stereo partly drawn) [Compound 171] |  |  |  |  |  | > 1 µM | > 1 µM | > 32 µg/mL | < 8 µg/mL | 8 to 32 µg/mL | > 32 µg/mL | > 32 µg/mL | 
CC(Cc1ccc(-n2ccc(NC(=O)N3CCN(C(=O)C(C)(C)N)CC3)nc2=O)cc1)NC[C@H]1C[C@H](N)C1 (stereo partly drawn) [Compound 156] | > 32 µg/mL | < 8 µg/mL | < 8 µg/mL | 8 to 32 µg/mL | > 32 µg/mL | > 1 µM | < 0.5 µM |  |  |  |  |  | 
C[C@@H]1CCN(CCc2ccc(-n3ccc(NC(=O)N4CCN(C(=O)[C@](C)(N)CO)CC4)nc3=O)cc2)CC[C@H]1N (stereo in doubt) [Compound 28] | > 32 µg/mL | < 8 µg/mL | < 8 µg/mL | < 8 µg/mL | > 32 µg/mL | > 1 µM | < 0.5 µM |  |  |  |  |  | 
CC(Cc1ccc(-n2ccc(NC(=O)N3CCN(C(=O)C(C)(C)N)CC3)nc2=O)cc1)N1CC[C@@H](CN)C1 (stereo partly drawn) [Compound 382] |  |  |  |  |  |  |  | > 32 µg/mL | < 8 µg/mL | < 8 µg/mL | < 8 µg/mL | 8 to 32 µg/mL | IC50 ([6]; % inhibition @ 1 μM): > 1 µM; IC50 ([7]; % inhibition @ 1 μM): < 0.5 µM
CC(COc1ccc(-n2ccc(NC(=O)N3CCN(C(=O)C(C)(C)N)CC3)nc2=O)cc1)N1CC[C@H](CN)C1 (stereo partly drawn) [Compound 190] |  |  |  |  |  | > 1 µM | < 0.5 µM | > 32 µg/mL | < 8 µg/mL | < 8 µg/mL | < 8 µg/mL | > 32 µg/mL | 
NC1CCCN(CCc2ccc(-n3ccc(NC(=O)N4CC5(CCC5N)C4)nc3=O)cc2)CC1 (stereo not drawn) [Compound 195] |  |  |  |  |  | > 1 µM | 0.5 to 1 µM | > 32 µg/mL | > 32 µg/mL | 8 to 32 µg/mL | > 32 µg/mL | > 32 µg/mL | 
CCN(Cc1ccc(-n2ccc(NC(=O)N3CCN(C(=O)CNC)CC3)nc2=O)cc1)C1CCC(N)CC1 (stereo not drawn) [Compound 313, hydrochloride salt] |  |  |  |  |  | > 1 µM | 0.5 to 1 µM |  |  |  |  |  | MIC [1]: > 32 µg/mL; MIC [2]: < 8 µg/mL; MIC [3]: < 8 µg/mL; MIC [4]: > 32 µg/mL; MIC [5]: > 32 µg/mL
CC(Cc1ccc(-n2ccc(NC(=O)N3CCN(C(=O)C(C)(C)N)CC3)nc2=O)cc1)N(C)[C@H]1CC[C@@H](N)CC1 (stereo partly drawn) [Compound 176] |  |  |  |  |  | > 1 µM | < 0.5 µM |  |  |  |  |  | Ab + bicarb MIC [1, 14]: + (An MIC value (μg/mL) that is 32 μg/mL or greater); E. coli + bicarb MIC [2, 15]: +++ (An MIC value (μg/mL) that is less than 8 μg/mL); Sa + bicarb MIC [3, 16]: +++ (An MIC value (μg/mL) that is less than 8 μg/mL); Ef + bicarb MIC [4, 17]: +++ (An MIC value (μg/mL) that is less than 8 μg/mL); Pa MIC + bicarb [5, 18]: + (An MIC value (μg/mL) that is 32 μg/mL or greater)
CCN(Cc1ccc(-n2ccc(NC(=O)N3CCN(C(=O)C(C)(C)N)CC3)nc2=O)cc1)[C@H]1CC[C@@H](N)CC1 [Compound 122] | > 32 µg/mL | < 8 µg/mL | < 8 µg/mL | < 8 µg/mL | > 32 µg/mL | > 1 µM | < 0.5 µM |  |  |  |  |  | 
CC(C)(N)C(=O)N1CCN(C(=O)Nc2ccn(-c3ccc(CN[C@H]4CC[C@H](N)CC4)c(F)c3)c(=O)n2)CC1 [Compound 330, 4-(2-Amino-2-methylpropanoyl)-N-(1-(4-(((trans-4-aminocyclohexyl)amino)methyl)-3-fluorophenyl)-2-oxo-1,2-dihydropyrimidin-4-yl)piperazine-1-carboxamide hydrochloride salt] |  |  |  |  |  | > 1 µM | < 0.5 µM |  |  |  |  |  | MIC [1]: > 32 µg/mL; MIC [2]: < 8 µg/mL; MIC [3]: 8 to 32 µg/mL; MIC [4]: > 32 µg/mL; MIC [5]: > 32 µg/mL
C[C@H](N)C1CCN(Cc2ccc(-n3ccc(NC(=O)N4CCN(C(=O)C(C)(C)N)CC4)nc3=O)cc2)CC1 [Compound 220] |  |  |  |  |  | > 1 µM | < 0.5 µM | 8 to 32 µg/mL | < 8 µg/mL | < 8 µg/mL | 8 to 32 µg/mL | > 32 µg/mL | 
CC(Cc1ccc(-n2ccc(NC(=O)N3CCN(C(=O)C(C)(C)N)CC3)nc2=O)cc1)N[C@H]1CC[C@@H](N)CC1 (stereo partly drawn) [Compound 174] |  |  |  |  |  | > 1 µM | < 0.5 µM | 8 to 32 µg/mL | < 8 µg/mL | < 8 µg/mL | < 8 µg/mL | > 32 µg/mL | 
CC(C)(N)C(=O)N1CCN(C(=O)Nc2ccn(-c3ccc(CNCC4CNC4)cc3)c(=O)n2)CC1 [Compound 374] |  |  |  |  |  |  |  |  | < 8 µg/mL | 8 to 32 µg/mL | 8 to 32 µg/mL | > 32 µg/mL | Ab + bicarb MIC [1, 14]: + (An MIC value (μg/mL) that is 32 μg/mL or greater); IC50 ([6]; % inhibition @ 1 μM): > 1 µM; IC50 ([7]; % inhibition @ 1 μM): < 0.5 µM
CCN(C(C)Cc1ccc(-n2ccc(NC(=O)N3CCN(C(=O)C(C)(C)N)CC3)nc2=O)cc1)[C@H]1CC[C@H](N)C1 (stereo partly drawn) [Compound 164] |  |  |  |  |  | > 1 µM | < 0.5 µM | 8 to 32 µg/mL | < 8 µg/mL | < 8 µg/mL | < 8 µg/mL | > 32 µg/mL | 
CCN(C[C@H]1CCC[C@H](N)C1)C(C)Cc1ccc(-n2ccc(NC(=O)N3CCN(C(=O)C(C)(C)N)CC3)nc2=O)cc1 (stereo partly drawn) [Compound 280] |  |  |  |  |  | > 1 µM | 0.5 to 1 µM | > 32 µg/mL | < 8 µg/mL | < 8 µg/mL | < 8 µg/mL | > 32 µg/mL | 
CC(C)(N)C(=O)N1CCN(C(=O)Nc2ccn(-c3ccc(CN[C@H]4CC[C@H](N)CC4)cc3)c(=O)n2)CC1 [Compound 117] | > 32 µg/mL | < 8 µg/mL | < 8 µg/mL | < 8 µg/mL | > 32 µg/mL | > 1 µM | < 0.5 µM |  |  |  |  |  | 
NC1CCN(Cc2ccc(-n3ccc(NC(=O)N4CC5(CC(N)C5)C4)nc3=O)cc2)CC1 [Compound 289] |  |  |  |  |  | > 1 µM | 0.5 to 1 µM | > 32 µg/mL | < 8 µg/mL | < 8 µg/mL | > 32 µg/mL | > 32 µg/mL | 
CC(C)(N)C(=O)N1CCN(C(=O)Nc2ccn(-c3ccc(C[C@H](N)C(=O)N4CC(N)C4)cc3)c(=O)n2)CC1 [Compound 146] | > 32 µg/mL | > 32 µg/mL | > 32 µg/mL | > 32 µg/mL | > 32 µg/mL | > 1 µM | > 1 µM |  |  |  |  |  | 
CC(Cc1ccc(-n2ccc(NC(=O)N3CCN(C(=O)C(C)(C)N)CC3)nc2=O)cc1)N(C)CC1CNC1 (stereo not drawn) [Compound 166] |  |  |  |  |  | > 1 µM | > 1 µM | > 32 µg/mL | 8 to 32 µg/mL | 8 to 32 µg/mL | > 32 µg/mL | > 32 µg/mL | 
Cc1cc(-n2ccc(NC(=O)N3CCN(C(=O)C(C)(C)N)CC3)nc2=O)ccc1CNC1CCC(N)CC1 (stereo not drawn) [Compound 283] |  |  |  |  |  | > 1 µM | < 0.5 µM | > 32 µg/mL | < 8 µg/mL | < 8 µg/mL | < 8 µg/mL | > 32 µg/mL | 
